From article PMC9386018, “A lymphatic-absorbed multi-targeted kinase inhibitor for myelofibrosis therapy” (Nature Communications, 2022)
Where “and” joins values, the source holds several entries; their conditions need not be identical. Identical values can stand only once.

Assays:
SET-2 cells = experiment: SET-2 proliferation assay (CellTiter-Fluor); format: cell-based, human; details: 72 h
Procedure: Viable cells were counted by CellTiter-Fluor Assay (Promega) according to manufacturer’s protocol, and all fluorescence values were corrected by a no-cell control. […] Caspase activity was measured by Caspase-Glo 3/7 assay (Promega) according to the manufacturer’s protocol, and all luminescence values were corrected by a no-cell control. Dose response proliferation and Caspase activation data was normalized to vehicle treated control cells and analyzed by non-linear regression for determination of IC50 values. Data was generated from n = 3 independent experiments performed in replicate.

[1] = biological target: T1, Target kinase isoforms (PI3K, mTOR, RAF, MEK) (Homo sapiens, UniProt O00329); experiment: Target kinase isoforms 10-point IC50 determination (Supplementary Fig. 7); format: biochemical; details: PI3K delta
T1 sequence (O00329 1-1044): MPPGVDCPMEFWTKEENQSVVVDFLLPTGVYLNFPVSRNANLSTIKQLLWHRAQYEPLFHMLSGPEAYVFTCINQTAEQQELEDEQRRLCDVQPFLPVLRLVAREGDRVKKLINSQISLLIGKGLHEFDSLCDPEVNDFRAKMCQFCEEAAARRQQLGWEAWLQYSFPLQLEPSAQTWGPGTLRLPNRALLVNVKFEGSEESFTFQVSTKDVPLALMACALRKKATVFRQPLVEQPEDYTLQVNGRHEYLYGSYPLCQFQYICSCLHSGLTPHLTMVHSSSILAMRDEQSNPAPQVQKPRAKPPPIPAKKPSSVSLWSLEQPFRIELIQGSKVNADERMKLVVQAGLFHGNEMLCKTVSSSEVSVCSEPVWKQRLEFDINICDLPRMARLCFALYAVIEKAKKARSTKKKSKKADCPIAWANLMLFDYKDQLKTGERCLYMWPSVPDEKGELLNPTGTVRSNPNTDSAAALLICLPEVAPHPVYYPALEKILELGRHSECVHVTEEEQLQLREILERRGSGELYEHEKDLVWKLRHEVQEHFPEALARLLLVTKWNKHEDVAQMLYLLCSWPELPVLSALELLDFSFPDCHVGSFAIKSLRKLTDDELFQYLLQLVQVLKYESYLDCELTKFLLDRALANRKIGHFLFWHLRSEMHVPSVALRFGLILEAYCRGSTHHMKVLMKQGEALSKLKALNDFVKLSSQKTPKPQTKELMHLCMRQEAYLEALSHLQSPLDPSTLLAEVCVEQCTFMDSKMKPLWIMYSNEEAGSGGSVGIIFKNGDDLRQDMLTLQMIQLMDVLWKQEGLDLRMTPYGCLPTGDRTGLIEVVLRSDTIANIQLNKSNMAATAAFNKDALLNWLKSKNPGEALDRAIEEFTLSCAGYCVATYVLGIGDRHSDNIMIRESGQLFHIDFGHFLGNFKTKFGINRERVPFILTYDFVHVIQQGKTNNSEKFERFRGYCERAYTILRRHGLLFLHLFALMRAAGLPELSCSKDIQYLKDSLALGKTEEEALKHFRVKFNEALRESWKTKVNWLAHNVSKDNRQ
Method in brief: (§1)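 Kinase activity across a 10-point dose series was corrected and normalized to vehicle-treated controls. IC50 values were derived by non-linear regression of percent activity. Kinome-wide percent inhibition was averaged over replicates.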

[2] = biological target: Target kinase isoforms (PI3K, mTOR, RAF, MEK) (Homo sapiens, UniProt P36507); experiment: as above; format: biochemical; details: MEK2, replicates
Method in brief: as §1

[3] = biological target: Target kinase isoforms (PI3K, mTOR, RAF, MEK) (Homo sapiens, UniProt P04049); experiment: as above; format: biochemical; details: CRAF
Method in brief: as §1

PI3Kγ = PI3Kγ (Homo sapiens, UniProt P48736); experiment: Target kinase 10-point inhibition assay, PI3Kγ; format: biochemical; details: PI3K gamma, replicates
Procedure: Quantitation of kinase inhibition was carried out by Life Technologies (Madison, WI) using the SelectScreen profiling platforms Z’-LYTE^TM and Adapta^TM. Single-point broad panel kinome screening was performed at 2.5 µM LP-182 against all kinases within the Z’-LYTE^TM and Adapta^TM assays (321 kinase isoforms, holoenzymes, or mutant variants). The average percent kinase inhibition from replicate data was ranked low to high, converted to a compatible identifier format, then input into Coral Human Kinome Visualization software for presentation analysis. […] Scaling of evolutionary distance for PI kinases is only relative and is based on literature analysis[62],[63]. Average percent kinome inhibition values from replicate data are supplied in Source Data file. […]. Corrected data was normalized to vehicle treated control values, and dose response percent kinase activity was analyzed by non-linear regression for determination of IC50 values.

[4] = concentration 4.57 nM, 0.00457 µM

Chain of PI3Kγ (P48736 whole entry, canonical isoform): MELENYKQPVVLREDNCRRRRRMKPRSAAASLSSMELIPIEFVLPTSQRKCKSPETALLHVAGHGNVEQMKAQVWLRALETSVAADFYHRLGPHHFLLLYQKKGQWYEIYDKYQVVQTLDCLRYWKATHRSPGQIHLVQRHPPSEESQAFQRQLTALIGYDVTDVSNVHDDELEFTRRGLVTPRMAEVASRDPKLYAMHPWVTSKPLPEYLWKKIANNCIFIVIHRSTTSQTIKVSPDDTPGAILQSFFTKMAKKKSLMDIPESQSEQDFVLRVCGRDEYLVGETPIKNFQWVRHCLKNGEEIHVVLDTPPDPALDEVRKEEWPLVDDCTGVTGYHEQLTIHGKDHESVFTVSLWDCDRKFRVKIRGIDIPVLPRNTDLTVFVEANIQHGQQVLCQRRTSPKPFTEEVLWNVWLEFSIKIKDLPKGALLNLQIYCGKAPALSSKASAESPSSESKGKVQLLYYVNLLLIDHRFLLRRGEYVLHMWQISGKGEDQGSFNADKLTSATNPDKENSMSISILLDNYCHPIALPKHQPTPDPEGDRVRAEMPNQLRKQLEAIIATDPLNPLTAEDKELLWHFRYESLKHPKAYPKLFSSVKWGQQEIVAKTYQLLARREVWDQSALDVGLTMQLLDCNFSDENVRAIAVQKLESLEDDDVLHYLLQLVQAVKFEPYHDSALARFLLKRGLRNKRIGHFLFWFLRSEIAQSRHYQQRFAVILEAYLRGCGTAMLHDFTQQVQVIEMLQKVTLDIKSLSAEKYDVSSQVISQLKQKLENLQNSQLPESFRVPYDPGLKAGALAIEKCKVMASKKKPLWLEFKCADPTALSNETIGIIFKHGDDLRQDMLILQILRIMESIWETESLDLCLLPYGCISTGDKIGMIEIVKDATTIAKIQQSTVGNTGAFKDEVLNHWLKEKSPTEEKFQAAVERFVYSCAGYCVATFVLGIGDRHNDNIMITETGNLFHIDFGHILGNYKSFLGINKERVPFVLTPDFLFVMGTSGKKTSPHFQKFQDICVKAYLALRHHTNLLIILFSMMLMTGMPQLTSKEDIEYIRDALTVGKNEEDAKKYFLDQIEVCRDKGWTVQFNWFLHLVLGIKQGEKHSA
Chain of Target kinase isoforms (PI3K, mTOR, RAF, MEK) (Homo sapiens, UniProt P36507) (P36507 whole entry, canonical isoform): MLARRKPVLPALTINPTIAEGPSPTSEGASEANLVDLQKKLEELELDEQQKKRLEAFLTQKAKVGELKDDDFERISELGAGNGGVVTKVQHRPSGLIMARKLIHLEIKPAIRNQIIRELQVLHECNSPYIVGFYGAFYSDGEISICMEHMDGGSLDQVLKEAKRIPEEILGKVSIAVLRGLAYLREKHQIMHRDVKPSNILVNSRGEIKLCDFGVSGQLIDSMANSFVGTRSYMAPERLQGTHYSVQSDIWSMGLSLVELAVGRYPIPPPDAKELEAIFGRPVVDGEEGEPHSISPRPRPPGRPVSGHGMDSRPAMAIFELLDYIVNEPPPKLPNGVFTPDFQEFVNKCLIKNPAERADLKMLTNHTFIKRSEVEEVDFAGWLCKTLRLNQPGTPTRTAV
Chain of Target kinase isoforms (PI3K, mTOR, RAF, MEK) (Homo sapiens, UniProt P04049) (P04049 whole entry, canonical isoform): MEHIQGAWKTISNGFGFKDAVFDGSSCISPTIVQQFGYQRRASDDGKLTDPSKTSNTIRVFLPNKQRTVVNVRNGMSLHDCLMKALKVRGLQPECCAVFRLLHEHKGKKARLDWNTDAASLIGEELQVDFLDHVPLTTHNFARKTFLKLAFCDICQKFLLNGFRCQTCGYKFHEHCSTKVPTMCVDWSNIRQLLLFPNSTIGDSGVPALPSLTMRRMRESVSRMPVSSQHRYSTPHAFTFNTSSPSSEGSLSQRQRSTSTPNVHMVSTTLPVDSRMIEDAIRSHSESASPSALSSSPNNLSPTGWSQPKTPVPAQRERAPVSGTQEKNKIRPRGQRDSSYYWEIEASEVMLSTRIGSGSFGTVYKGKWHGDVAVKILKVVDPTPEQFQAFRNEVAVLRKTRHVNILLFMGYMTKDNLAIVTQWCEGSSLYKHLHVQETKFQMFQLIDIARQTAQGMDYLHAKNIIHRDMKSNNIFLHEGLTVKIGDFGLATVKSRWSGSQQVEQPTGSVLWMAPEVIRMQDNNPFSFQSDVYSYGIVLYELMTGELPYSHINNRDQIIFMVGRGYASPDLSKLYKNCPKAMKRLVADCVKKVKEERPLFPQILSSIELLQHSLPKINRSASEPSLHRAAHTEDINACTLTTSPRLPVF

**Q.** For O=C(NOCCOCCOCCOCCC(=O)N1CCN(c2cnc3ccc(-c4cnc(Cl)c(NS(=O)(=O)c5ccc(F)cc5)c4)cc3n2)CC1)c1ccc(F)c(F)c1Nc1ccc(I)cc1F [LP-182, N-(2-(2-(2-(3-(4-(7-(6-chloro-5-((4-fluorophenyl)sulfonamido)pyridin-3-yl)quinoxalin-2-yl)piperazin-1-yl)-3-oxopropoxy)ethoxy)ethoxy)ethoxy)-3,4-difluoro-2-((2-fluoro-4-iodophenyl)amino)benzamide], which “Growth (%)” value (SET-2 cells; 0.15625 µM, replicates (Fig. 2d)) is on record?
**A.** 82.3145% and 74.8007% and 92.2424% and 95.23%

**Q.** What about the “Growth (%)” value (SET-2 cells; 0.3125 µM, replicates (Fig. 2d)) of the same molecule?
**A.** 82.5275% and 93.6976% and 99.8925% and 94.4152% and 100.311% and 101.419%

**Q.** What about the “Growth (%)” value (SET-2 cells; 0.625 µM, replicates (Fig. 2d)) of the same molecule?
**A.** 75.7591% and 84.1959% and 99.0777% and 114.242% and 99.4809% and 107.316%

**Q.** What about the “Growth (%)” value (SET-2 cells; LP-182 0.625 µM, replicates) of the same molecule?
**A.** 94.49% and 102.748% and 105.532% and 109.611% and 111.9% and 115.3% and 97.84% and 53.1792% and 80% and 77.2254% and 41.1561% and 108.317%

**Q.** What about the “Growth (%)” value (SET-2 cells; LP-182 5 µM, replicates) of the same molecule?
**A.** 88.52% and 52.137% and 67.274% and 67.1508% and 90.41% and 85.13% and 85.23% and 51.3295% and 50.867% (2×) and 75.3757% and 52.71%

**Q.** What about the “Growth (%)” value (SET-2 cells; LP-182 10 µM, replicates) of the same molecule?
**A.** 67.22% and 40.3515% and 41.5713% and 43.4811% and 65.18% and 66.4% and 66.22% and 0% and 7.399% and 24.9711% (2×) and 44.7503%

**Q.** What about the “Growth (%)” value (SET-2 cells; LP-182 20 µM, replicates) of the same molecule?
**A.** 33.48% and 38.226% and 25.5964% and 32.3363% and 26.13% and 25.92% and 25.14% and 0% (4×) and 25.7197%

**Q.** And the “Growth (%)” value (SET-2 cells; LP-182 40 µM, replicates)?
**A.** 13.5% and 29.145% and 27.7897% and 24.9557% and 14.69% and 13.53% and 12.78% and 0% (4×) and 22.7255%

**Q.** What about the IC50 (SET-2 cells; Homo sapiens, read-out: IC50, inhibition of cellular proliferation) of the same molecule?
**A.** 7.6 ± 0.82 µM

**Q.** And the “Kinase Activity (%) PI3K delta” value ([1]; concentration 0.0187 nM, 18.7 pM)?
**A.** 95% and 92% and 102% and 111% and 107%

**Q.** And the “Kinase Activity (%) PI3K delta” value ([1]; concentration 0.0562 nM, 56.2 pM)?
**A.** 105% and 92% and 107% and 113% and 96%

**Q.** What about the activity at 0.000495 µM ([1]; concentration 0.495 nM) of the same molecule?
**A.** 83%

**Q.** And the activity at 0.00152 µM ([1]; concentration 1.52 nM)?
**A.** 71%

**Q.** What about the “Kinase Activity (%) PI3K delta” value [1, 4] of the same molecule?
**A.** 44%

**Q.** And the “Kinase Activity (%) PI3K delta” value ([1]; concentration 1110 nM, 1.11 µM)?
**A.** 6% and 2% and 7% and 4%

**Q.** And the activity at 3.33 µM ([1]; concentration 3330 nM)?
**A.** 5%

**Q.** What about the “Kinase Activity (%) PI3K delta” value ([1]; concentration 3330 nM, 3.33 µM) of the same molecule?
**A.** 6%

**Q.** And the “Kinase Activity (%) PI3K delta” value ([1]; concentration 10000 nM, 10 µM)?
**A.** 6% and 8% and 0% and 10% and 7%

**Q.** What about the activity at 0.000495 µM ([2]; concentration 0.495 nM) of the same molecule?
**A.** 90%

**Q.** What about the “Kinase Activity (%)” value ([2]; concentration 0.495 nM, 0.000495 µM) of the same molecule?
**A.** 96% (2×) and 93% and 95%

**Q.** And the activity at 0.00152 µM ([2]; concentration 1.52 nM)?
**A.** 89%

**Q.** And the “Kinase Activity (%)” value ([2]; concentration 1.52 nM, 0.00152 µM)?
**A.** 91% and 95% and 92% and 94%

**Q.** And the activity at 0.00457 µM ([2]; concentration 4.57 nM)?
**A.** 87%

**Q.** And the “Kinase Activity (%)” value [2, 4]?
**A.** 96% and 91% and 88%

**Q.** What about the activity at 0.0412 µM ([2]; concentration 41.2 nM) of the same molecule?
**A.** 68%

**Q.** And the “Kinase Activity (%)” value ([2]; concentration 41.2 nM, 0.0412 µM)?
**A.** 64% and 78% (2×) and 82% and 72%

**Q.** What about the “Kinase Activity (%)” value ([2]; concentration 123 nM, 0.123 µM) of the same molecule?
**A.** 45% and 36% and 54% and 60% and 51% and 56%

**Q.** And the activity at 1.11 µM ([2]; concentration 1110 nM)?
**A.** 6%

**Q.** And the “Kinase Activity (%)” value ([2]; concentration 1110 nM, 1.11 µM)?
**A.** 8% and 12% (2×) and 10%

**Q.** What about the “Kinase Activity (%)” value ([2]; concentration 3330 nM, 3.33 µM) of the same molecule?
**A.** 1% (3×) and 2% (2×) and 0%

**Q.** And the “Kinase Activity (%)” value ([2]; concentration 10000 nM, 10 µM)?
**A.** 2% (2×) and 0% (2×) and -1% and 1%

**Q.** What about the activity at 0.000495 µM ([3]; concentration 0.495 nM, replicates) of the same molecule?
**A.** 97%

**Q.** And the “Kinase Activity (%)” value ([3]; concentration 0.495 nM, replicates, 0.000495 µM)?
**A.** 102% and 93% and 92% and 98%

**Q.** And the activity at 0.00152 µM ([3]; concentration 1.52 nM, replicates)?
**A.** 100%

**Q.** What about the “Kinase Activity (%)” value ([3]; concentration 1.52 nM, replicates, 0.00152 µM) of the same molecule?
**A.** 93% and 94%

**Q.** What about the activity at 0.00457 µM ([3]; concentration 4.57 nM, replicates) of the same molecule?
**A.** 96%

**Q.** And the “Kinase Activity (%)” value ([3]; concentration 4.57 nM, replicates, 0.00457 µM)?
**A.** 94% (2×) and 89% and 91% and 93%

**Q.** And the “Kinase Activity (%)” value ([3]; concentration 41.2 nM, replicates, 0.0412 µM)?
**A.** 56% and 79% and 66% and 72% and 70% and 71%

**Q.** What about the activity at 0.123 µM ([3]; concentration 123 nM, replicates) of the same molecule?
**A.** 31%

**Q.** And the “Kinase Activity (%)” value ([3]; concentration 123 nM, replicates, 0.123 µM)?
**A.** 30% and 34% (3×) and 32%

**Q.** And the activity at […] ([3]; concentration 370 nM, replicates)?
**A.** 7%

**Q.** And the “Kinase Activity (%)” value ([3]; concentration 1110 nM, replicates, 1.11 µM)?
**A.** 1% (2×) and 3% and 0% and 2% (2×)

**Q.** And the “Kinase Activity (%) CRAF” value ([3]; concentration 3330 nM, 3.33 µM)?
**A.** 0% and -2% and -1%

**Q.** And the “Kinase Activity (%) CRAF” value ([3]; concentration 10000 nM, 10 µM)?
**A.** 3% and 0% and 1% and -1%

**Q.** What about the “Kinase Activity (%)” value (PI3Kγ; 0.495 nM, 0.000495 µM) of the same molecule?
**A.** 106% and 101% and 126% and 100% and 96% and 89% and 105% and 98%

**Q.** And the “Kinase Activity (%)” value (PI3Kγ; 1.52 nM, 0.00152 µM)?
**A.** 108% and 97% and 115% and 123% and 99% (2×) and 105% and 90% and 88% and 93%

**Q.** And the “Kinase Activity (%)” value (PI3Kγ; 4.57 nM, 0.00457 µM)?
**A.** 89% and 94% (2×) and 106% and 98% and 93% and 87% and 82% and 77% and 92%

**Q.** What about the “Kinase Activity (%)” value (PI3Kγ; 41.2 nM, 0.0412 µM) of the same molecule?
**A.** 50% (2×) and 48% and 43% and 55% and 47% and 37% and 30% and 31% and 32%

**Q.** What about the activity at 0.123 µM (PI3Kγ; 123 nM) of the same molecule?
**A.** 20%

**Q.** And the “Kinase Activity (%)” value (PI3Kγ; 123 nM, 0.123 µM)?
**A.** 21% (3×) and 25% and 22% and 19% and 16% (2×) and 13%

**Q.** And the activity at […] (PI3Kγ; 370 nM)?
**A.** 6%

**Q.** What about the “Kinase Activity (%)” value (PI3Kγ; 1110 nM, 1.11 µM) of the same molecule?
**A.** 1% (4×) and 4% and 0% and 2% (2×) and 3% (2×)

**Q.** And the “Kinase Activity (%)” value (PI3Kγ; 3330 nM, 3.33 µM)?
**A.** 0% (9×) and 1%

**Q.** What about the “Kinase Activity (%)” value (PI3Kγ; 10000 nM, 10 µM) of the same molecule?
**A.** 4% and 0% (8×) and 2%
